Measured values reported in patent US20250154198A1, “PEPTIDE INHIBITORS OF INTERLEUKIN-23 RECEPTOR” (Zealand Pharma A/S, priority 2021, published 2025).
*1 amine or outer side, *2 acyl side, *3 side chain or, on linkers, in order; H or OH if unused. Where a SMILES comes first, the peptide text is derived from it. Bridges are numbered along the chain shown (N, C = ends). [ ]: non-standard residue; d: D form. NHCH2(1,3-C6H4)CH2CO = O=C(Cc1cccc(CN[*:1])c1)[*:2]; αMeAla(3-pyridyl) = C[C@](N)(Cc1cccnc1)C(=O)O; Phe(3,4-Me2) = Cc1ccc(C[C@H](N)C(=O)O)cc1C; 2Nal = N[C@@H](Cc1ccc2ccccc2c1)C(=O)O; AEF = NCCOc1ccc(C[C@H](N)C(=O)O)cc1; NMeR = CN[C@@H](CCCNC(=N)N)C(=O)O; X1 = O=C(Cc1ccc(CN[*:1])cc1)[*:2]; 3Pal = N[C@@H](Cc1cccnc1)C(=O)O; αMeL = CC(C)C[C@](C)(N)C(=O)O; CH2COCH2 = O=C(C[*:1])C[*:2]; αMeV = CC(C)[C@](C)(N)C(=O)O; 3Amb = NCc1cccc(C(=O)O)c1; Dab = NCC[C@H](N)C(=O)O

Legend:
[1] = Peptide stability in simulated intestinal fluid (SIF); format: in vitro ADME; conditions: Table 3-2, porcine pancreatin, pH 6.8, 37° C., 10 μM; for remaining at 1 h, 10 μM / remaining at 4 h, 10 μM: pig, simulated intestinal fluid (SIF) with porcine pancreatin; for remaining at 1 h, 10 μM: read-out: SIF (% remaining 1 h); for remaining at 4 h, 10 μM: read-out: SIF (% remaining 4 h)
Protocol: Determination of Peptide Stability in Simulated Gastric Fluid (SGF) and Simulated Intestinal Fluid (SIF)
SGF was prepared by dissolving sodium chloride (0.2 g) in 50 mL of water. A volume of 0.7 mL of 10 M HCl was added to adjust the pH of the solution to 1.2 and the volume made up to 100 mL with water. […] SIF was prepared by dissolving monobasic potassium phosphate (0.68 g) in 50 mL of water and adjusting the pH to 6.8 with 1 M NaOH. The volume was subsequently made up to 100 mL with water. 200 mg porcine pancreatin (P1625, Sigma Aldrich) was gently dissolved into 20 mL preheated (37° C.) solution (10 g/L) immediately prior to the incubation.
The incubation was performed at 37° C. with gentle shaking. […] After the last timepoint, the sampling plate was mixed for 10 min on a shaking table and centrifuged 10 min at 2200 g. 70 μL resulting supernatant was diluted with 150 μL water, mixed and centrifugated before analysis by liquid chromatography high resolution mass spectrometry. […] Percent remaining at each timepoint was calculated relative to timepoint zero based on absolute peak areas.

human IL-23R = target: T1, human IL-23R (Homo sapiens, UniProt Q5VWK5); assay: Binding assay (NanoBRET displacement of fluorophore-labelled reference compound) for estimating binding affinity to human IL-23R; conditions: Table 3-1; read-out: Ki hIL-23R
T1 construct: UniProtKB—Q5VWK5, amino acids 22-629; secretion signal of the plasmid (Promega N1371); expressed in transfected cells
T1 sequence (Q5VWK5 22-629): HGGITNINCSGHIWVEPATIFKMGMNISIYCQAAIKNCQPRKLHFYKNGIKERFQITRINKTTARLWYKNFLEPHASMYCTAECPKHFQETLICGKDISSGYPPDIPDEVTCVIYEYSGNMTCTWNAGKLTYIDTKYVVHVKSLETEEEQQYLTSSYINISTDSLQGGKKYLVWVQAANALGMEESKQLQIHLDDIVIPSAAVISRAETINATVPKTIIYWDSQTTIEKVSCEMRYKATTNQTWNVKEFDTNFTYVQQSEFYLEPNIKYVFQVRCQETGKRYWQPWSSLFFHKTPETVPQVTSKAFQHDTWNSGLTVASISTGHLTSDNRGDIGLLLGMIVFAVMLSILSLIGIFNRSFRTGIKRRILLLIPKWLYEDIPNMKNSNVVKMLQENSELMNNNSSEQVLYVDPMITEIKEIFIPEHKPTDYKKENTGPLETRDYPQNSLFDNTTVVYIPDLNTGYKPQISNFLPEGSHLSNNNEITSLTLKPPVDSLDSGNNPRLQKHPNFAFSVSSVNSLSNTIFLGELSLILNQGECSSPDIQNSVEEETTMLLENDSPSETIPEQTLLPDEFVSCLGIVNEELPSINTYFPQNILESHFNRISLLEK

remaining at 4 h, 10 μM [1] | Structure (SMILES) | SIF (% remaining 4 h) [1] | also measured
 | CC(C)C[C@@H]1NC(=O)[C@H](Cc2c[nH]c3ccccc23)NC(=O)[C@H](Cc2c[nH]c3ccccc23)NC(=O)[C@@H]2CSCC(=O)CSC[C@H](NC(=O)[C@H]([C@@H](C)O)NC(=O)[C@@H](NC(=O)CN)CSCC(=O)CSC[C@@H](C(=O)N[C@@H](CO)C(N)=O)NC1=O)C(=O)N[C@@H](Cc1c[nH]c3ccccc13)C(=O)N[C@@H](CCC(=O)O)C(=O)N2 (single isomer, unassigned) [I1 (isomer 3), H-GC(1a)TC(2a)WEC(2a)WWLC(1a)S-[NH2], reference compound] | 0% | 
 | CC(C)C[C@@H]1NC(=O)[C@H](Cc2c[nH]c3ccccc23)NC(=O)[C@H](Cc2c[nH]c3ccccc23)NC(=O)[C@@H]2CSCC(=O)CSC[C@H](NC(=O)[C@H](CO)NC(=O)[C@@H](NC(=O)[C@@H](N)CC(=O)O)CSCC(=O)CSC[C@@H](C(=O)N[C@@H](CCCNC(=N)N)C(N)=O)NC1=O)C(=O)N[C@@H](Cc1c[nH]c3ccccc13)C(=O)N[C@@H](CCC(N)=O)C(=O)N2 (single isomer, unassigned) [I3 (isomer 3), H-DC(1a)SC(2a)WQC(2a)WWLC(1a)R-[NH2], reference compound] | 0% | 
 | CSCC[C@H](NC(=O)[C@@H]1CSCC(=O)CSC[C@H](NC(=O)[C@@H](N)CCC(=O)O)C(=O)N[C@@H](Cc2c[nH]c3ccccc23)C(=O)N[C@@H](CC(C)C)C(=O)N[C@H]2CSCC(=O)CSC[C@H](NC(=O)[C@H](CC(N)=O)NC(=O)[C@H](CCCNC(=N)N)NC(=O)[C@H](Cc3ccc(O)cc3)NC(=O)[C@H](Cc3ccc(O)cc3)NC2=O)C(=O)N[C@@H](CC(N)=O)C(=O)N1)C(N)=O (single isomer, unassigned) [I4 (isomer 3), H-EC(4a)WLC(5a)YYRNC(5a)NC(4a)M-[NH2], reference compound] | 0% | 
 | CC(C)C[C@]1(C)NC(=O)[C@H](Cc2ccc3ccccc3c2)NC(=O)[C@H](Cc2c[nH]c3ccccc23)NC(=O)[C@@H]2CSCC(=O)CSC[C@H](NC(=O)[C@H](CO)NC(=O)c3cccc(c3)CNC(=O)CC[C@@H](C(=O)N[C@@H](CCCNC(=N)N)C(N)=O)NC1=O)C(=O)N[C@@H](Cc1c[nH]c3ccccc13)C(=O)N[C@@H](CCC(N)=O)C(=O)N2 [Compound 40, [(3-Aminomethyl)benzoyl](1c)*SC(2a)WQC(2a)W[2-Nal][2-Me-Leu]E(1c)R-[NH2]] ([3Amb]SCWQCW[2Nal][αMeL]ER-NH2; linker 3-6 via CH2COCH2; lactam N-10) |  | remaining at 1 h, 10 μM [1]: 70%
33% | CC(C)C[C@]1(C)NC(=O)[C@H](Cc2ccc3ccccc3c2)NC(=O)[C@H](Cc2ccc(OCCN)cc2)NC(=O)[C@@H]2CSCC(=O)CSC[C@H](NC(=O)[C@H](CO)NC(=O)c3cccc(c3)CNC(=O)CC[C@@H](C(=O)N(C)[C@@H](CCCNC(=N)N)C(N)=O)NC1=O)C(=O)N[C@@H](Cc1c[nH]c3ccccc13)C(=O)N[C@@H](CCC(N)=O)C(=O)N2 [Compound 43, [(3-Aminomethyl)benzoyl](1c)*SC(2a)WQC(2a)[Y(2-aminoethoxy)][2-Nal][2-Me-Leu]E(1c)[N-Me-Arg]-[NH2]] ([3Amb]SCWQC[AEF][2Nal][αMeL]E[NMeR]-NH2; linker 3-6 via CH2COCH2; lactam N-10) |  | 
0% | CC(=O)N[C@H]1CCCCNC(=O)CC[C@@H](C(=O)N[C@@H](CCCNC(=N)N)C(N)=O)NC(=O)[C@](C)(CC(C)C)NC(=O)[C@H](Cc2ccc3ccccc3c2)NC(=O)[C@H](Cc2ccc(OCCN)cc2)NC(=O)[C@@H]2CSCC(=O)CSC[C@H](NC(=O)[C@H](CO)NC1=O)C(=O)N[C@@H](Cc1c[nH]c3ccccc13)C(=O)N[C@@H](CCC(N)=O)C(=O)N2 [Compound 47, [Ac]-K(1c)SC(2a)WQC(2a)[Y(2-aminoethoxy)][2-Nal][2-Me-Leu]E(1c)R-[NH2]] (Ac-KSCWQC[AEF][2Nal][αMeL]ER-NH2; lactam 1-10; linker 3-6 via CH2COCH2) |  | remaining at 1 h, 10 μM [1]: 2%
102% | CC(C)C[C@]1(C)NC(=O)[C@H](Cc2ccc3ccccc3c2)NC(=O)[C@H](Cc2ccc(OCCN)cc2)NC(=O)[C@@H]2CSCC(=O)CSC[C@H](NC(=O)[C@H](CO)NC(=O)Cc3cccc(c3)CNC(=O)CC[C@@H](C(=O)N[C@H](CCCNC(=N)N)C(N)=O)NC1=O)C(=O)N[C@@H](Cc1c[nH]c3ccccc13)C(=O)N[C@@H](CCC(N)=O)C(=O)N2 [Compound 92, [3-Aminomethyl-phenylacetyl](1c)*SC(2a)WQC(2a)[Y(2-aminoethoxy)][2-Nal][2-Me-Leu]E(1c)[{d}R]-[NH2]] ([NHCH2(1,3-C6H4)CH2CO]SCWQC[AEF][2Nal][αMeL]E[dR]-NH2; linker 3-6 via CH2COCH2; lactam N-10) |  | 
 | CC[C@H](C)[C@@H]1NC(=O)Cc2ccc(cc2)CNC(=O)CC[C@@H](C(=O)N[C@@H](CCN)C(=O)N[C@@H](Cc2cccnc2)C(N)=O)NC(=O)[C@](C)(C(C)C)NC(=O)[C@H](Cc2ccc3ccccc3c2)NC(=O)[C@H](Cc2ccc(OCCN)cc2)NC(=O)[C@@H]2CCNC(=O)CC[C@H](NC1=O)C(=O)N[C@@H](Cc1c[nH]c3ccccc13)C(=O)N[C@@H](CCC(N)=O)C(=O)N2 [Compound 157, [4-Aminomethyl-phenylacetyl](1c)*IE(2c)WQ[Dab](2c)[Y(2-aminoethoxy)][2-Nal][2-Me-Val]E(1c)[Dab][3-(3-Pyridyl)-Ala]-[NH2]] ([X1]IEWQ[Dab][AEF][2Nal][αMeV]E[Dab][3Pal]-NH2; lactam 3-6, N-10) |  | Ki (human IL-23R): 11.7 pM
 | CC[C@H](C)[C@@H]1NC(=O)Cc2ccc(cc2)CNC(=O)CC[C@@H](C(=O)NCC(=O)N[C@@H](Cc2cccnc2)C(N)=O)NC(=O)[C@](C)(C(C)C)NC(=O)[C@H](Cc2ccc(C)c(C)c2)NC(=O)[C@H](Cc2ccc(OCCN)cc2)NC(=O)[C@@H]2CCNC(=O)CC[C@H](NC1=O)C(=O)N[C@@H](Cc1c[nH]c3ccccc13)C(=O)N[C@@H](CCC(N)=O)C(=O)N2 [Compound 158, [4-Aminomethyl-phenylacetyl](1c)*IE(2c)WQ[Dab](2c)[Y(2-aminoethoxy)][F(3,4-Me)][2-Me-Val]E(1c)G[3-(3-Pyridyl)-Ala]-[NH2]] ([X1]IEWQ[Dab][AEF][Phe(3,4-Me2)][αMeV]EG[3Pal]-NH2; lactam 3-6, N-10) |  | Ki (human IL-23R): 27.2 pM
86% | CC[C@H](C)[C@@H]1NC(=O)Cc2ccc(cc2)CNC(=O)CC[C@@H](C(=O)N[C@@H](CCN)C(=O)N[C@@](C)(Cc2cccnc2)C(N)=O)NC(=O)[C@](C)(C(C)C)NC(=O)[C@H](Cc2ccc(C)c(C)c2)NC(=O)[C@H](Cc2ccc(OC)cc2)NC(=O)[C@@H]2CCNC(=O)CC[C@H](NC1=O)C(=O)N[C@@H](Cc1c[nH]c3ccccc13)C(=O)N[C@@H](CCC(N)=O)C(=O)N2 [Compound 166, [4-Aminomethyl-phenylacetyl](1c)*IE(2c)WQ[Dab](2c)[Y(Me)][F(3,4-Me)][2-Me-Val]E(1c)[Dab][2-Me-3-(3-Pyridyl)-Ala]-[NH2]] ([X1]IEWQ[Dab]Y(Me)[Phe(3,4-Me2)][αMeV]E[Dab][αMeAla(3-pyridyl)]-NH2; lactam 3-6, N-10) |  | 
